Measurements reported in patent US8778937B2, “Benzimidazole boronic acid derivatives as PI3 kinase inhibitors” (GlaxoSmithKline LLC, priority 2011, dated 2014).

biological target: T1, PI3Kβ (Homo sapiens, UniProt P42338); test: HTRF in vitro profiling assay for PI3K inhibition (beta isoform); format: biochemical; settings: 200 pM enzyme, 100 uM ATP, 10 uM PIP2, 150 mM NaCl, corrected pIC50, single run or average of two or more runs, read-out: PI3K b pIC50 (converted)
T1 construct: made in house
Protocol: Compounds of the present invention were tested according to the following assays and found as inhibitors of PI3 kinases, particularly PI3Kβ. […] The IC50 value can be converted and presented as pIC50 value.
HTRF In Vitro Profiling Assays for PI3K Inhibition
The PI3-Kinase profiling assays were developed to measure the compound-dependent inhibition of the alpha, beta, delta, and gamma isoforms of PI3K in an in vitro catalytic assay. This assay was developed and optimized from a kit produced by Upstate (Millipore catalog #33-017). Briefly, this procedure utilizes a pre-formed HTRF (Homogeneous Time-Resolved Fluorescence energy transfer) complex between four binding partners: 1) biotinylated PIP3, 2) GST tagged pleckstrin homology (PH) domain, 3) Europium labeled anti-GST monoclonal antibody, and 4) Streptavidin-Allophycocyanin (APC). The native PIP3 produced by PI 3-Kinase activity displaces biotin-PIP3 from the PH domain, resulting in the dissociation of the HTRF complex and a decrease in the fluorescence signal. The format of this assay is the same for all 4 isoforms of PI3K; the differences lie in the concentration of enzyme used to achieve the most robust signal. The alpha and delta assays are run at 400 pM enzyme; the beta assay is at 200 pM enzyme and the gamma assay is run at 1 nM enzyme. In addition, the alpha, beta and delta assays are run with 150 mM NaCl while the gamma assay is run in the absence of NaCl. The ATP concentration is 100 uM in the alpha, beta, and delta assays and 15 uM ATP in the gamma assay. All reactions are run at 10 uM PIP2
Compounds were serially diluted (3-fold in 100% DMSO) across a 384-well polypropylene mother plate from column 1 to column 12 and column 13 to column 24, to yield 11 concentrations for each test compound. Columns 6 and 18 contain only DMSO. Once titrations were made, 0.05 μL was transferred to a 384-well low-volume assay plate (Greiner 784076). This assay plate contained three pharmacological controls (known PI3K inhibitors) and 3 assay controls: (1) Enzyme without inhibitor; (2) Buffer minus enzyme, and (3) Buffer minus enzyme plus native PIP3. DMSO was stamped into all wells of columns 6 and 18. PIP3 was added at 40 μM in 1× Reaction buffer (1 μL of 200 μM PIP3) to alternating rows of column 18 (wells 18 B, D, F, H, J, L, N, P). The no-enzyme control reactions were run in wells 18 A, C, E, G, I, K, M, O (0.1 μL of 100% DMSO).
The PI3-Kinase profiling assay was optimized using the HTRF kit provided by Upstate (Millipore). The assay kit contained seven reagents: 1) 4× Reaction Buffer; 2) native PIP2 (substrate); 3) Stop A (EDTA); 4) Stop B (Biotin-PIP3); 5) Detection Mix A (Streptavidin-APC); 6) Detection Mix B (Eu-labeled Anti-GST plus GST-tagged PH-domain); 7) Detection Mix C (KF). In addition, the following items were obtained or purchased: PI3Kinase (prepared by GSK BR&AD), dithiothreitol (Sigma, D-5545), Adenosine-5′-triphosphate (ATP, Teknova cat. # A0220), native PIP3 (1,2-dioctanoyl-sn-glycero-3-[phosphoinositil-3,4,5-triphosphate]tetraammonium salt (Avanti polar lipids, 850186P), DMSO (Sigma, 472301).
PI3Kinase Reaction Buffer was prepared by diluting the stock 1:4 with de-ionized water. Freshly prepared DTT was added at a final concentration of 5 mM on the day of use. Enzyme addition and compound pre-incubation were initiated by the addition of 2.5 μL of PI3K (at twice its final concentration) in 1× reaction buffer to all wells using a Multidrop Combi. Plates were incubated at room temperature for 15 minutes. Reactions were initiated by addition of 2.5 μL of 2× substrate solution (PIP2 and ATP in 1× reaction buffer) using a Multidrop Combi. Plates were incubated at room temperature for one hour. Reactions were quenched by the addition of 2.5 μL of stop solution (Stop A and Stop B pre-mixed at a ratio of 5:1, respectively) to all wells using the Multidrop Combi. […]

T1 sequence (P42338 whole entry, canonical isoform): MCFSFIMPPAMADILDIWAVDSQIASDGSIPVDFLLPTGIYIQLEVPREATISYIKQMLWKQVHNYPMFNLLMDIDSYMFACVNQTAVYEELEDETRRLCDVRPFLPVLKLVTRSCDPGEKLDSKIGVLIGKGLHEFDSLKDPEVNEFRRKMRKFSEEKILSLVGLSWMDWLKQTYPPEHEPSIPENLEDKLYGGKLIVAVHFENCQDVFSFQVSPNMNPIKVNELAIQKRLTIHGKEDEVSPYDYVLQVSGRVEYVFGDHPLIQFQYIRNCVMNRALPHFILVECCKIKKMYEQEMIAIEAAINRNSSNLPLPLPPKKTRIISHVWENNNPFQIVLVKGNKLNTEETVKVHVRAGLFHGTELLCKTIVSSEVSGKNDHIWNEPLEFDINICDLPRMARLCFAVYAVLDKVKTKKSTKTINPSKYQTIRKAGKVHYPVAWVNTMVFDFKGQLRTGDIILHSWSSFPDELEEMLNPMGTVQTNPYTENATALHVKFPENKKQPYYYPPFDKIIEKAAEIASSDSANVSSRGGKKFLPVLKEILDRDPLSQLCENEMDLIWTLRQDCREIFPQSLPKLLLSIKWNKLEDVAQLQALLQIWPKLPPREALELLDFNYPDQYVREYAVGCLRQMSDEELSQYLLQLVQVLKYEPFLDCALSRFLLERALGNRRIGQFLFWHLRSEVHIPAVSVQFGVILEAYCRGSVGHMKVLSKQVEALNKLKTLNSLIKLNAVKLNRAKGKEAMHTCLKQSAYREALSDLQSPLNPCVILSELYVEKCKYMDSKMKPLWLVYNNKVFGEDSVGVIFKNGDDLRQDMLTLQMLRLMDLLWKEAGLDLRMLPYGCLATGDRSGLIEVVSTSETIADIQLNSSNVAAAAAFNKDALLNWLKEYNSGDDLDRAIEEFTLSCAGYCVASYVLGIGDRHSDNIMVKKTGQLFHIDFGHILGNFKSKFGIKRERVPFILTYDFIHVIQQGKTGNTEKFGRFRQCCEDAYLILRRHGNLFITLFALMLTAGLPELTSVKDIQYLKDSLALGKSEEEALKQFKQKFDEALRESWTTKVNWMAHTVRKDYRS
T1 sequence (P27986 whole entry partner, canonical isoform): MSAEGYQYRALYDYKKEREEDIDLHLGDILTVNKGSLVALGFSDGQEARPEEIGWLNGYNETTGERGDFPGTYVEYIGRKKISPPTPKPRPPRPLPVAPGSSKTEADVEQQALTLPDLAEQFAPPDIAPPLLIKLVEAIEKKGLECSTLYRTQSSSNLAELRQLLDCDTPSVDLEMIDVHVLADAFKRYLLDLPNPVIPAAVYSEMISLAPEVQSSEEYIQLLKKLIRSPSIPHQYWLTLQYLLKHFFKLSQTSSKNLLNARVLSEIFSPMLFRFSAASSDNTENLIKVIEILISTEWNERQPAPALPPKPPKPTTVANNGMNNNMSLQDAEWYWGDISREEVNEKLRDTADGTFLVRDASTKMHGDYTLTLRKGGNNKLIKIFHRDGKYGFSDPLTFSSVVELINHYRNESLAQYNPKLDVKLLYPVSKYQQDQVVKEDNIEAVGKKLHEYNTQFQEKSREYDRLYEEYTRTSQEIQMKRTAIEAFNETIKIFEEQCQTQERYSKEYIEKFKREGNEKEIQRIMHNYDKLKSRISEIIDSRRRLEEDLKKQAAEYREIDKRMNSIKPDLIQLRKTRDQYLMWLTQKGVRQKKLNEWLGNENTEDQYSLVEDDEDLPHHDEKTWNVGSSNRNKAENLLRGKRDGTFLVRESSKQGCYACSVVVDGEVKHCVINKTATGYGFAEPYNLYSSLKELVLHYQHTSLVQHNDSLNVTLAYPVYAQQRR

Row | IC50 [nM] | SMILES
1 | 0.398 | Cc1c(Cn2c(C)nc3c(B(O)O)cc(N4CCOCC4)cc32)cccc1C(F)(F)F [Example 4, (2-methyl-1-(2-methyl-3-(trifluoromethyl)benzyl)-6-morpholino-1H-benzo[d]imidazol-4-yl)boronic acid]
2 | 0.2 | Cc1c(Cl)cccc1Cn1c(C)nc2c(B(O)O)cc(N3CCOCC3)cc21 [Example 5, (1-(3-chloro-2-methylbenzyl)-2-methyl-6-morpholino-1H-benzo[d]imidazol-4-yl)boronic acid]
3 | 0.501 | Cc1nc2c(B(O)O)cc(N3CCOCC3)cc2n1Cc1cccc2ccccc12 [Example 6, (2-methyl-6-morpholino-1-(naphthalen-1-ylmethyl)-1H-benzo[d]imidazol-4-yl)boronic acid]
4 | 0.501 | Cc1cccc(Cn2c(C)nc3c(B(O)O)cc(N4CCOCC4)cc32)c1C [Example 7, (1-(2,3-dimethylbenzyl)-2-methyl-6-morpholino-1H-benzo[d]imidazol-4-yl)boronic acid]
5 | 0.501 | Cc1nc2c(B(O)O)cc(N3CCOCC3)cc2n1Cc1cccc(Cl)c1Cl [Example 8, (1-(2,3-dichlorobenzyl)-2-methyl-6-morpholino-1H-benzo[d]imidazol-4-yl)boronic acid]
6 | 1.26 | Cc1nc2c(B(O)O)cc(N3CCOCC3)cc2n1Cc1cccc2ccsc12 [Example 9]
7 | 63.1 | Cc1cccc(Cn2c(C)nc3c(B(O)O)cc(N4CCOCC4)cc32)c1 [Example 10, (2-methyl-1-(3-methylbenzyl)-6-morpholino-1H-benzo[d]imidazol-4-yl)boronic acid]
8 | 10 | Cc1ccccc1Cn1c(C)nc2c(B(O)O)cc(N3CCOCC3)cc21 [Example 11, (2-methyl-1-(2-methylbenzyl)-6-morpholino-1H-benzo[d]imidazol-4-yl)boronic acid]
9 | 39.8 | Cc1nc2c(B(O)O)cc(N3CCOCC3)cc2n1Cc1ccccc1Cl [Example 12, (1-(2-chlorobenzyl)-2-methyl-6-morpholino-1H-benzo[d]imidazol-4-yl)boronic acid]
10 | 63.1 | Cc1nc2c(B(O)O)cc(N3CCOCC3)cc2n1Cc1cccc(Cl)c1 [Example 13, (1-(3-chlorobenzyl)-2-methyl-6-morpholino-1H-benzo[d]imidazol-4-yl)boronic acid]
11 | 1.58 | Cc1c(Cn2cnc3c(B(O)O)cc(N4CCOCC4)cc32)cccc1C(F)(F)F [Example 14, (1-(2-methyl-3-(trifluoromethyl)benzyl)-6-morpholino-1H-benzo[d]imidazol-4-yl)boronic acid]
12 | 1.26 | Cc1c(Cl)cccc1Cn1cnc2c(B(O)O)cc(N3CCOCC3)cc21 [Example 15, (1-(3-chloro-2-methylbenzyl)-6-morpholino-1H-benzo[d]imidazol-4-yl)boronic acid]
13 | 0.0631 | Cc1c(Cn2c(CF)nc3c(B(O)O)cc(N4CCOCC4)cc32)cccc1C(F)(F)F [Example 16, (2-(fluoromethyl)-1-(2-methyl-3-(trifluoromethyl)benzyl)-6-morpholino-1H-benzo[d]imidazol-4-yl)boronic acid]
14 | 0.0631 | Cc1c(Cl)cccc1Cn1c(CF)nc2c(B(O)O)cc(N3CCOCC3)cc21 [Example 17, (1-(3-chloro-2-methylbenzyl)-2-(fluoromethyl)-6-morpholino-1H-benzo[d]imidazol-4-yl)boronic acid]
15 | 0.2 | Cc1c(Cn2c(CO)nc3c(B(O)O)cc(N4CCOCC4)cc32)cccc1C(F)(F)F [Example 18, (2-(hydroxymethyl)-1-(2-methyl-3-(trifluoromethyl)benzyl)-6-morpholino-1H-benzo[d]imidazol-4-yl)boronic acid]
16 | 0.0794 | Cc1c(Cl)cccc1Cn1c(C(F)F)nc2c(B(O)O)cc(N3CCOCC3)cc21 [Example 19, (1-(3-chloro-2-methylbenzyl)-2-(difluoromethyl)-6-morpholino-1H-benzo[d]imidazol-4-yl)boronic acid]
17 | 0.126 | Cc1c(Cn2c(C(F)F)nc3c(B(O)O)cc(N4CCOCC4)cc32)cccc1C(F)(F)F [Example 20, (2-(difluoromethyl)-1-(2-methyl-3-(trifluoromethyl)benzyl)-6-morpholino-1H-benzo[d]imidazol-4-yl)boronic acid]
18 | 0.0794 | Cc1c(Cl)cccc1Cn1c(C(F)(F)F)nc2c(B(O)O)cc(N3CCOCC3)cc21 [Example 21, (1-(3-chloro-2-methylbenzyl)-6-morpholino-2-(trifluoromethyl)-1H-benzo[d]imidazol-4-yl)boronic acid]
19 | 3.16 | Cc1c(Cn2c(C(C)C)nc3c(B(O)O)cc(N4CCOCC4)cc32)cccc1C(F)(F)F [Example 22, (2-isopropyl-1-(2-methyl-3-(trifluoromethyl)benzyl)-6-morpholino-1H-benzo[d]imidazol-4-yl)boronic acid]
20 | 1.26 | Cc1c(Cn2c(C3CC3)nc3c(B(O)O)cc(N4CCOCC4)cc32)cccc1C(F)(F)F [Example 23, (2-cyclopropyl-1-(2-methyl-3-(trifluoromethyl)benzyl)-6-morpholino-1H-benzo[d]imidazol-4-yl)boronic acid]
